Test results taken from patent US20090042904A1 (LABORATORIOS DEL DR. ESTEVE S.A., priority 2004, published 2009).

biological target: T1, 5HT6-human recombinant receptor (Homo sapiens, UniProt P50406); assay: Binding to serotonin receptor 5-HT6 ([3H]-LSD displacement); details: membranes of HEK-293 cells expressing the receptor; radioligand [3H]-LSD 2.7 nM; 60 minutes at 37° C.
T1 construct: purchased Receptor Biology; host or cells: HEK-293 cells (membranes)
Protocol: I) Binding to Serotonin Receptor 5-HT6
Cell membranes of HEK-293 cells expressing the 5HT6-human recombinant receptor were supplied by Receptor Biology. In said membranes the receptor concentration is 2.18 pmol/mg protein and the protein concentration is 9.17 mg/ml. The experimental protocol follows the method of B. L. Roth et al. [B. L. Roth, S. C. Craigo, M. S. Choudhary, A. Uluer, F. J. Monsma, Y. Shen, H. Y. Meltzer, D. R. Sibley: Binding of Typical and Atypical Antipsychotic Agents to 5-Hydroxytryptamine-6 and Hydroxytryptamine-7 Receptors. The Journal of Pharmacology and Experimental Therapeutics, 1994, 268, 1403] with the following slight changes. The respective part of the literature description is hereby incorporated by reference and forms part of the disclosure.
The commercial membrane is diluted (1:40 dilution) with the binding buffer: 50 mM Tris-HCl, 10 mM MgCl2,0.5 mM EDTA (pH 7.4). The radioligand used is [^3H]-LSD at a concentration of 2.7 nM with a final volume of 200 μl. Incubation is initiated by adding 100 μl of membrane suspension, (≈22.9 μg membrane protein), and is prolonged for 60 minutes at a temperature of 37° C. The incubation is ended by fast filtration in a Brandel Cell Harvester through fiber glass filters made by Schleicher & Schuell GF 3362 pretreated with a solution of polyethylenimine at 0.5%. The filters are washed three times with three milliliters of buffer Tris-HCl 50 mM pH 7.4. The filters are transferred to flasks and 5 ml of Ecoscint H liquid scintillation cocktail are added to each flask. The flasks are allowed to reach equilibrium for several hours before counting with a Wallac Winspectral 1414 scintillation counter. Non-specific binding is determined in the presence of 100 μM of serotonin. Tests were made in triplicate. The inhibition constants (Ki, nM) were calculated by non-linear regression analysis using the program EBDA/LIGAND described in Munson and Rodbard, Analytical Biochemistry, 1980, 107, 220, the respective part of which is hereby incorporated by reference and forms part of the disclosure.
The binding of the substituted phenyl-piperazine compounds to the 5-HT6 receptor was determined as described above.

T1 sequence (P50406 whole entry): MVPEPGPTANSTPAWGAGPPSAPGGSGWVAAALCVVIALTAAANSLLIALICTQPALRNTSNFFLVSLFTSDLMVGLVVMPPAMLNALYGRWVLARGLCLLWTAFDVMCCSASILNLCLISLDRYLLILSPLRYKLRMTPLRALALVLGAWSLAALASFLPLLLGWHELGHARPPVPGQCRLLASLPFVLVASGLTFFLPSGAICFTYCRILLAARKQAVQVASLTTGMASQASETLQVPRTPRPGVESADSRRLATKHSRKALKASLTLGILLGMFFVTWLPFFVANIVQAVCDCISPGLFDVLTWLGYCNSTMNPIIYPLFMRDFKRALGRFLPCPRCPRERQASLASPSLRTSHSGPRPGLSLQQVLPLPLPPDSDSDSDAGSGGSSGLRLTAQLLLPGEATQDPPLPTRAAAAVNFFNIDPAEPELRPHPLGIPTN

Structure (SMILES)	Ki [nM]
CN1CCN(c2ccc(C#N)c(NCc3ccccc3)c2)CC1 [Example 5, 2-Benzylamino-4-(4-methyl-piperazin-1-yl)-benzonitrile]	108
COC(=O)c1ccc(N2CCN(C)CC2)cc1NCCc1ccccc1 [Example 6, 4-(4-Methyl-piperazin-1-yl)-2-phenethylamino-benzoic acid methyl ester]	462
CN1CCN(c2ccc(OCc3ccccc3)c(NCCc3ccccc3)c2)CC1 [Example 9, [2-Benzyloxy-5-(4-methyl-piperazin-1-yl)-phenyl]-phenethyl-amine]	1280
CN1CCN(c2ccc(OCc3ccccc3)c(NCc3ccco3)c2)CC1 [Example 10]	402
COc1ccc(N2CCN(C)CC2)cc1NCc1ccccc1 [Example 11, Benzyl-[2-methoxy-5-(4-methyl-piperazin-1-yl)-phenyl]-amine]	409
CC(=O)N(Cc1ccccc1)c1ccc(N2CCN(C)CC2)cc1N [Example 23, N-[2-Amino-4-(4-methyl-piperazin-1-yl)-phenyl]-N-benzyl-acetamide]	164
CN1CCN(c2ccc(NS(=O)(=O)c3ccccc3)c(NCc3ccccc3)c2)CC1 [Example 24, N-[2-Benzylamino-4-(4-methyl-piperazin-1-yl)-phenyl]-benzenesulfonamide]	60.2
